In brackets after ≈: the same amount, converted by molar mass.
Test: antioxidant capacity (scavenging of free radical DPPH)
Conditions: main component of the extract
Excerpt: The extract was obtained by sonication in ethanol 85% at a ratio of 1 g of tissue in 10 volumes of solvent.

COc1cc(C(=O)O)cc(OC)c1O [syringic acid]
EC50 (antioxidant capacity): 170 µg/mL (≈ 858 µM)
